pIC50: −log10 of the molar value. Read-outs that look alike come from different tables or passages of the source.
Assays:
hGALR-1 = target: T1, hGALR-1 (Homo sapiens, UniProt P47211); experiment: Human Galanin-1 Receptor Binding Assay (SPA, 125I human galanin displacement); settings: membranes from human Bowes melanoma cells
T1 construct: hGALR-1 that is contained in membranes from human Bowes melanoma cells; endogenous in cells; host or cells: human Bowes melanoma cells (membranes)
T1 sequence (P47211 1-349): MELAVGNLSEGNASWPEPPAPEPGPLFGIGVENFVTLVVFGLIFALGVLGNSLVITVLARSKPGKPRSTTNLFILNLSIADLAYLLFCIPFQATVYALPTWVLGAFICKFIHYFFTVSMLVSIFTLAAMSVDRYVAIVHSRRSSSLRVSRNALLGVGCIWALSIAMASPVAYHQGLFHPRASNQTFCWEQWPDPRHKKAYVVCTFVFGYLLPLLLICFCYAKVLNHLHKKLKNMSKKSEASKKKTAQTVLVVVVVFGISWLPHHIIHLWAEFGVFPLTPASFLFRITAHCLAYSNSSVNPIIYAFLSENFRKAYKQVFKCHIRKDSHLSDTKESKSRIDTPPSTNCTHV
Procedure: This assay determines the concentration (IC50) of a test compound which prevents 50% of galanin from binding to the hGALR-1 that is contained in membranes from human Bowes melanoma cells bound to wheat germ agglutinin conjugated Scintillation Proximity Assay (SPA) beads. The IC50 value is obtained by measuring the effect of half log increment dilutions of the test compound in duplicate using a 96-well plate (eight-rows, 12-columns).
The SPA beads (500 mg) were dissolved in 12.5 mL of assay buffer composed of 20mM DMSO-HEPES (pH 7.4), 0.1% bovine serum albumin, 2mM MgCl2, 2mM CaCl2, and protease inhibitors. Enough of this suspension for five plates (25 µL x 5 x 96 wells = 12000 µL) was dispensed into a 50 mL sterile Falcon tube. The amount of membranes required for five plates was then added (50µg x 5 x 96 wells), followed by 32.5 mL of 30% DMSO-HEPES buffer. The mixture was placed on a rotator and agitated for 0.5 hours and the non-specific binding sites on the beads were blocked by the addition of 5% [final] fetal bovine serum. Each well of the 96-well plate received 100 µL of this mixture.
To the control column (column 12) rows A and B was added 3.75 µL of a 300 µM solution of galantide in 30% DMSO-HEPES buffer, to rows C and D was added 3.75 µL of 30% DMSO-HEPES buffer and to rows E and F was added 3.75 µL of a 300 µM solution of galanin in 30% DMSO-HEPES buffer. In columns 1 through 11 were added solutions of the test compound in 30% DMSO-HEPES buffer starting at 30 µM and decreasing in concentration in half-log dilutions. A solution of radioactive ^125I human galanin (46.25 µL), prepared from 25 micro Curies of ^125I human galanin (2000 ci/mmol) and 500 µL of assay buffer, was added to each well. The plate was sealed with adhesive paper and incubated for 16 hr at room temperature before the quench-corrected bound radioactivity was measured in a Topcount® apparatus. For each dilution, the % inhibition of galanin binding was calculated as follows: Total binding (T) = Mean counts/minute (cpm) in row C and D in column 12 [formula] Non-specific binding (NSB) = Mean cpm in row E and F in column 12 [formula] Total specific binding (TS) = T-NSB [formula] cpm in each well = C [formula] net cpm in each well (N) = C-NSB [formula] % inhibition = 100%-N × 100%/TS [formula]
The IC50 values for each compound were calculated from the non-linear regression curve of the data using Prism® graphics software.

Rat Galanin-1 Receptor = target: T2, Rat Galanin-1 Receptor (Rattus norvegicus, UniProt Q62805); experiment: Galanin-1 receptor mediated inhibition of acetylcholine release from rat brain cortical slices (superfusion, K+-evoked [3H]acetylcholine efflux); settings: for Acetycholine Secretion Stimulated (change vs Control) / Acetycholine Secretion Stimulated: K+-evoked; for Acetycholine Secretion Stimulated / Acetycholine Secretion Basal: mean fractional tritium release
T2 construct: Rat brain cerebrocortical tissues were chopped into slices; from tissue; host or cells: rat brain cerebrocortical slices
T2 sequence (Q62805 1-346): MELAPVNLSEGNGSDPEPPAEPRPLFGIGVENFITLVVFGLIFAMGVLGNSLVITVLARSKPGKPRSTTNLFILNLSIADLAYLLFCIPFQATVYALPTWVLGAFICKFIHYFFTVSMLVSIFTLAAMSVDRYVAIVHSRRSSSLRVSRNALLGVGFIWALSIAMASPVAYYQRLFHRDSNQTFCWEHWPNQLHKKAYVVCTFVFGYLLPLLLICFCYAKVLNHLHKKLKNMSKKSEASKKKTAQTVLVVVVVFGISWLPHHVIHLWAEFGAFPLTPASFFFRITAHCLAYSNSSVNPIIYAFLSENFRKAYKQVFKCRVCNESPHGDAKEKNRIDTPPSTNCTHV
Procedure: Rat brain cerebrocortical tissues were chopped into slices of 300 x 300 x […] using a Mcllwain tissue chopper. The slices were washed and incubated at 37°C for 30 min in Krebs-Ringer solution: NaCl 118 mM, KCI 4.8 mM, CaCl2 1.3 mM, KH2PO4 1.2 mM, MgSO4 1.2 mM, NaHCO3, 25 mM, glucose […], ascorbic acid […] (previously aerated for 10 min with 95% O2/5% CO2 to obtain a pH of 7.4) and 0.1 µM [Methyl-^3H]choline chloride (85 Ci/mmol, Amersham Life Sciences, Arlington Heights, IL). After incubation, the slices were washed three times with ice-cold physiological solution and resuspended in 6 ml of cold solution. Equal aliquots of the tissue suspension were placed in each of 6 parallel superfusion chambers (Hugo Sachs Elektronik, March-Hugstetten, Germany). A circular piece of nylon mesh (pore size 250 um) was placed just below each chamber outlet in order to prevent the loss of tissue. The chambers were perfused against gravity with oxygenated Krebs-Ringer containing 1 mM physostigmine hemisulfate at a flow rate of 1 ml/min. At the concentration used, physostigmine had no effect on the release of total radioactivity from tissue slices. The onset of superfusion was defined as time zero (t0). Starting at 30 min after t0, 10 min fractions of the effluent were collected.
Release of [^3H]acetylcholine was induced by superfusing tissues for 30 sec with 65mM K^+-Krebs-Ringer solution (made by isomolar replacement of NaCl with KCI). Four potassium pulses were given respectively at 40 min (S1), 70 min (S2), 100 min (S3) and 130 min (S4) after to. No significant deterioration in fractional release was observed during the 4 consecutive stimuli. […] To permit construction of concentration-effect curves, concentrations of agents were increased 10 fold between each stimulus.
Following perfusion, the tissue was homogenized in 1 ml ethanol and aliquots of superfusates (0.4ml) and tissue homogenates (0.04ml) were added to 5 ml of Scintsafe PlusTM 50% (Fisher Scientific, Pittsburgh, PA) and radioactivity counted by liquid scintillation spectrometry. The total ^3H content in this procedure consisted mainly of [^3H]acetylcholine.
Tritium (^3H) efflux into the superfusate was calculated as the fraction of tritium content in the slices or synaptosomes at the onset of the respective collection period. For calculation of the stimulated tritium overflow, the estimated basal efflux (the average of the 10 min fractions immediately before and after each stimulation) was subtracted from the total tritium efflux during the 10 min fraction which began with the 30 sec K^+ pulse. This difference was then used to calculate the percent of K^+-evoked release of acetylcholine.
In order to quantify the in vitro effect of a drug on stimulated tritium outflow, the ratio of the fraction released by a given pulse, Sn, to that evoked by S1, was determined. Data presented below are expressed as the mean fractional tritium release ± S.E.M. Statistical differences between treatments were tested by the two-tailed Student's t test or the two factor ANOVA as appropriate. Individual differences in the dose-response curve was evaluated by the Newman-Keul multiple comparison.

[1] = Table II, formula (II) compounds, read-out: hGAL IC50
[2] = Table I, formula (I) compounds, read-out: HGAL IC50

| SMILES | pIC50 (hGALR-1; [1]) | other results |
| --- | --- | --- |
| O=S1(=O)C=C(c2ccccc2)S(=O)(=O)CCC1 [Cmpd 5] | 5.57 |  |
| O=S1(=O)C=C(c2ccc(OC(F)(F)F)cc2)S(=O)(=O)CCC1 [Cmpd 23] | 6.31 |  |
| O=S1(=O)C=C(c2cccc(C(F)(F)F)c2)S(=O)(=O)CCC1 [Cmpd 11] | 6.22 |  |
| COc1cccc(C2=CS(=O)(=O)CCCS2(=O)=O)c1 [Cmpd 7] | 6.04 |  |
| O=S1(=O)C=C(c2cccc(OC(F)(F)F)c2)S(=O)(=O)CCC1 [Cmpd 20] | 5.57 |  |
| O=S1(=O)C=C(c2ccc(Oc3ccccc3)cc2)S(=O)(=O)CCC1 [Cmpd 19] | 6.39 |  |
| O=S1(=O)C=C(c2ccc(S(=O)(=O)c3ccccc3)cc2)S(=O)(=O)CCC1 [Cmpd 35] | 5.80 |  |
| O=S1(=O)C=C(c2cccc3ccccc23)S(=O)(=O)CCC1 [Cmpd 37] | 6.43 |  |
| O=S1(=O)C=C(c2ccccc2Cl)S(=O)(=O)CCC1 [Cmpd 12] | 6.19 |  |
| O=S1(=O)C=C(c2ccc(C3CCCCC3)cc2)S(=O)(=O)CCC1 [Cmpd 25] | 5.96 |  |
| O=S1(=O)C=C(c2cccc(Br)c2)S(=O)(=O)CCC1 [Cmpd 9] | 6.05 |  |
| O=S1(=O)C=C(c2ccsc2)S(=O)(=O)CCC1 [Cmpd 41] | 5.89 |  |
| O=S1(=O)C=C(c2cccc(Cl)c2)S(=O)(=O)CCC1 [Cmpd 8] | 6.00 |  |
| O=S1(=O)C=C(c2ccccc2Br)S(=O)(=O)CCC1 [Cmpd 30] | 6.24 |  |
| O=C(Oc1ccccc1)c1cccc(C2=CS(=O)(=O)CCCS2(=O)=O)c1 [Cmpd 33] | 6.36 |  |
| Cc1ccccc1C1=CS(=O)(=O)CCCS1(=O)=O [Cmpd 18] | 5.80 |  |
| O=S1(=O)C=C(c2ccccc2F)S(=O)(=O)CCC1 [Cmpd 29] | 6.37 |  |
| CCCNC(=O)c1ccc(C2=CS(=O)(=O)CCCS2(=O)=O)cc1 [Cmpd 36] | 5.98 |  |

| SMILES | pIC50 (hGALR-1; [1]) | other results |
| --- | --- | --- |
| CCCCOc1ccc(C(=O)NC(Cc2ccccc2)C2=CS(=O)(=O)CCS2(=O)=O)cc1 (centres unmarked) [Cmpd 4] |  | pIC50 (hGALR-1; [2]): 6.00 |
| CCOC(=O)c1ccc(C2=CS(=O)(=O)CCCS2(=O)=O)cc1 [Cmpd 34] | 6.00 |  |
| CCc1ccc(C2=CS(=O)(=O)CCCS2(=O)=O)cc1 [Cmpd 26] | 6.37 |  |
| O=S1(=O)C=C(c2ccc(F)cc2)S(=O)(=O)CCC1 [Cmpd 14] | 6.39 |  |
| O=S1(=O)C=C(c2ccc(-c3ccccc3)cc2)S(=O)(=O)CCC1 [Cmpd 24] | 6.22 |  |
| O=S1(=O)C=C(c2cccs2)S(=O)(=O)CCC1 [Cmpd 40] | 5.89 |  |
| O=C(NCCc1ccccc1)c1ccc(C2=CS(=O)(=O)CCCS2(=O)=O)cc1 [Cmpd 38] | 5.98 |  |
| O=S1(=O)C=C(c2ccccc2C(F)(F)F)S(=O)(=O)CCC1 [Cmpd 31] | 6.24 |  |
| O=S1(=O)C=C(c2ccccc2)S(=O)(=O)CC1 [Cmpd 1] |  | pIC50 (hGALR-1; [2]): 5.57 |
| O=S1(=O)C=C(c2ccc(I)cc2)S(=O)(=O)CCC1 [Cmpd 17] | 6.15 | Acetycholine Secretion Basal (change vs Control) (Rat Galanin-1 Receptor; 1 µM+GAL): -39.2%; Acetycholine Secretion Stimulated (change vs Control) (Rat Galanin-1 Receptor; 1 µM+GAL): -35.2%; Acetycholine Secretion Stimulated (Rat Galanin-1 Receptor; 1 µM+GAL): 5.37; Acetycholine Secretion Basal (Rat Galanin-1 Receptor; 1 µM+GAL): 2.19; Acetycholine Secretion Basal (change vs Control) (Rat Galanin-1 Receptor; 10 µM+GAL): -37%; Acetycholine Secretion Stimulated (change vs Control) (Rat Galanin-1 Receptor; 10 µM+GAL): -22.3%; Acetycholine Secretion Stimulated (Rat Galanin-1 Receptor; 10 µM+GAL): 6.44; Acetycholine Secretion Basal (Rat Galanin-1 Receptor; 10 µM+GAL): 2.27 |
| CCOc1ccc(C2=CS(=O)(=O)CCCS2(=O)=O)cc1 [Cmpd 28] | 6.23 |  |
| NC(Cc1ccccc1)C1=CS(=O)(=O)CCS1(=O)=O (centres unmarked) [Cmpd 3] |  | pIC50 (hGALR-1; [2]): 5.10 |
| O=S1(=O)C=C(c2ccc(Br)cc2)S(=O)(=O)CCC1 [Cmpd 13] | 6.59 |  |
| O=S1(=O)C=C(c2cccc(F)c2)S(=O)(=O)CCC1 [Cmpd 16] |  | Acetycholine Secretion Basal (change vs Control) (Rat Galanin-1 Receptor; 1 µM+GAL): -38.9%; Acetycholine Secretion Stimulated (change vs Control) (Rat Galanin-1 Receptor; 1 µM+GAL): -23.9%; Acetycholine Secretion Basal (Rat Galanin-1 Receptor; 1 µM+GAL): 2.20; Acetycholine Secretion Basal (change vs Control) (Rat Galanin-1 Receptor; 10 µM+GAL): -37% |
| COc1ccccc1C1=CS(=O)(=O)CCCS1(=O)=O [Cmpd 32] | 6.00 |  |
| O=S1(=O)C=C(c2cccc(I)c2)S(=O)(=O)CCC1 [Cmpd 27] | 6.07 |  |
| O=S1(=O)C=C(c2ccc(C(F)(F)F)cc2)S(=O)(=O)CCC1 [Cmpd 22] | 5.68 |  |
| Cc1cccc(C2=CS(=O)(=O)CCCS2(=O)=O)c1 [Cmpd 6] | 5.89 |  |
